#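 Step 1: Grow cells in 96-well plates. Step 2: Expose to compound for 48 hours at 5 concentrations. Step 3: Interpolate endpoints linearly; if unreached, use highest concentration. GI50: concentration for 50% inhibition of growth.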 Calls of active or inactive are those of the source. Rule as the data show it: active = GI50 up to about 1.1 µM and inactive = higher.
# Experiments:
# Assay in all cases: NCI-60 cell line screen, 48 h
# 786-0 = tested on: 786-0
# A498 = tested on: A498
# A549 = tested on: A549
# ACHN = tested on: ACHN
# BT-549 = tested on: BT-549
# CAKI-1 = tested on: CAKI-1
# CCRF-CEM = tested on: CCRF-CEM
# COLO 205 = tested on: COLO 205
# DU-145 = tested on: DU-145
# EKVX = tested on: EKVX
# HCC 2998 = tested on: HCC 2998
# HCT-116 = tested on: HCT-116
# HCT-15 = tested on: HCT-15
# HL-60 = tested on: HL-60
# HOP-62 = tested on: HOP-62
# HOP-92 = tested on: HOP-92
# HT-29 = tested on: HT-29
# Hs-578T = tested on: Hs-578T
# IGROV-1 = tested on: IGROV-1
# K562 = tested on: K562
# KM12 = tested on: KM12
# LOX IMVI = tested on: LOX IMVI
# M14 = tested on: M14
# MCF7 = tested on: MCF7
# MDA-MB-231 = tested on: MDA-MB-231
# MDA-MB-435 = tested on: MDA-MB-435
# MDA-N = tested on: MDA-N
# MOLT-4 = tested on: MOLT-4
# Malme-3M = tested on: Malme-3M
# NCI-H23 = tested on: NCI-H23
# NCI-H460 = tested on: NCI-H460
# NCI-H522 = tested on: NCI-H522
# NCI/ADR-RES = tested on: NCI/ADR-RES
# OVCAR-3 = tested on: OVCAR-3
# OVCAR-4 = tested on: OVCAR-4
# OVCAR-5 = tested on: OVCAR-5
# OVCAR-8 = tested on: OVCAR-8
# PC-3 = tested on: PC-3
# RPMI-8226 = tested on: RPMI-8226
# RXF 393 = tested on: RXF 393
# SF-268 = tested on: SF-268
# SF-295 = tested on: SF-295
# SF-539 = tested on: SF-539
# SK-MEL-28 = tested on: SK-MEL-28
# SK-MEL-2 = tested on: SK-MEL-2
# SK-MEL-5 = tested on: SK-MEL-5
# SK-OV-3 = tested on: SK-OV-3
# SN12C = tested on: SN12C
# SNB-19 = tested on: SNB-19
# SNB-75 = tested on: SNB-75
# SW-620 = tested on: SW-620
# T47D = tested on: T47D
# TK-10 = tested on: TK-10
# U-251 = tested on: U-251
# UACC-257 = tested on: UACC-257
# UACC-62 = tested on: UACC-62
# UO-31 = tested on: UO-31
# NCI-H226 = tested on: NCI-H226
# SR = tested on: SR
smiles,measurement,setting,value
N=C(N)NCCNC(=N)N,GI50,786-0,> 100 µM (inactive)
same,GI50,A498,> 100 µM (inactive)
same,GI50,A549,> 100 µM (inactive)
same,GI50,ACHN,> 100 µM (inactive)
same,GI50,BT-549,> 100 µM (inactive)
same,GI50,CAKI-1,> 100 µM (inactive)
same,GI50,CCRF-CEM,> 100 µM (inactive)
same,GI50,COLO 205,> 100 µM (inactive)
same,GI50,DU-145,> 100 µM (inactive)
same,GI50,EKVX,> 100 µM (inactive)
same,GI50,HCC 2998,> 100 µM (inactive)
same,GI50,HCT-116,> 100 µM (inactive)
same,GI50,HCT-15,> 100 µM
same,GI50,HL-60,> 100 µM (inactive)
same,GI50,HOP-62,> 100 µM (inactive)
same,GI50,HOP-92,> 100 µM (inactive)
same,GI50,HT-29,> 100 µM (inactive)
same,GI50,Hs-578T,> 100 µM (inactive)
same,GI50,IGROV-1,> 100 µM (inactive)
same,GI50,K562,> 100 µM (inactive)
same,GI50,KM12,> 100 µM (inactive)
same,GI50,LOX IMVI,> 100 µM (inactive)
same,GI50,M14,> 100 µM (inactive)
same,GI50,MCF7,> 100 µM (inactive)
same,GI50,MDA-MB-231,> 100 µM (inactive)
same,GI50,MDA-MB-435,> 100 µM (inactive)
same,GI50,MDA-N,> 100 µM (inactive)
same,GI50,MOLT-4,> 100 µM (inactive)
same,GI50,Malme-3M,37.5 µM (inactive)
same,GI50,NCI-H23,> 100 µM (inactive)
same,GI50,NCI-H460,> 100 µM (inactive)
same,GI50,NCI-H522,> 100 µM (inactive)
same,GI50,NCI/ADR-RES,> 100 µM (inactive)
same,GI50,OVCAR-3,> 100 µM (inactive)
same,GI50,OVCAR-4,> 100 µM (inactive)
same,GI50,OVCAR-5,> 100 µM (inactive)
same,GI50,OVCAR-8,> 100 µM (inactive)
same,GI50,PC-3,> 100 µM (inactive)
same,GI50,RPMI-8226,> 100 µM (inactive)
same,GI50,RXF 393,> 100 µM (inactive)
same,GI50,SF-268,> 100 µM (inactive)
same,GI50,SF-295,> 100 µM (inactive)
same,GI50,SF-539,> 100 µM (inactive)
same,GI50,SK-MEL-28,> 100 µM (inactive)
same,GI50,SK-MEL-2,> 100 µM (inactive)
same,GI50,SK-MEL-5,> 100 µM (inactive)
same,GI50,SK-OV-3,> 100 µM (inactive)
same,GI50,SN12C,85.1 µM (inactive)
same,GI50,SNB-19,> 100 µM (inactive)
same,GI50,SNB-75,89.9 µM (inactive)
same,GI50,SW-620,> 100 µM (inactive)
same,GI50,T47D,84.3 µM (inactive)
same,GI50,TK-10,> 100 µM (inactive)
same,GI50,U-251,> 100 µM (inactive)
same,GI50,UACC-257,> 100 µM (inactive)
same,GI50,UACC-62,> 100 µM (inactive)
same,GI50,UO-31,> 100 µM (inactive)
Cc1c(C)c(C)c(-n2[nH]c(=O)n(C)c2=O)c(C)c1C,GI50,786-0,> 100 µM (inactive)
same,GI50,A498,> 100 µM (inactive)
same,GI50,A549,> 100 µM (inactive)
same,GI50,ACHN,> 100 µM (inactive)
same,GI50,BT-549,> 100 µM (inactive)
same,GI50,CAKI-1,> 100 µM (inactive)
same,GI50,CCRF-CEM,> 100 µM (inactive)
same,GI50,COLO 205,> 100 µM (inactive)
same,GI50,DU-145,> 100 µM (inactive)
same,GI50,EKVX,> 100 µM (inactive)
same,GI50,HCT-116,> 100 µM (inactive)
same,GI50,HCT-15,> 100 µM
same,GI50,HL-60,> 100 µM (inactive)
same,GI50,HOP-62,> 100 µM (inactive)
same,GI50,HOP-92,> 100 µM (inactive)
same,GI50,HT-29,> 100 µM (inactive)
same,GI50,Hs-578T,> 100 µM (inactive)
same,GI50,IGROV-1,> 100 µM (inactive)
same,GI50,K562,> 100 µM (inactive)
same,GI50,KM12,> 100 µM (inactive)
same,GI50,LOX IMVI,> 100 µM (inactive)
same,GI50,M14,> 100 µM (inactive)
same,GI50,MCF7,> 100 µM (inactive)
same,GI50,MDA-MB-231,> 100 µM (inactive)
same,GI50,MDA-MB-435,> 100 µM (inactive)
same,GI50,MDA-N,> 100 µM (inactive)
same,GI50,MOLT-4,> 100 µM (inactive)
same,GI50,NCI-H226,> 100 µM (inactive)
same,GI50,NCI-H23,> 100 µM (inactive)
same,GI50,NCI-H460,> 100 µM (inactive)
same,GI50,NCI/ADR-RES,> 100 µM (inactive)
same,GI50,OVCAR-3,> 100 µM (inactive)
same,GI50,OVCAR-5,> 100 µM (inactive)
same,GI50,OVCAR-8,> 100 µM (inactive)
same,GI50,PC-3,> 100 µM (inactive)
same,GI50,RPMI-8226,> 100 µM (inactive)
same,GI50,SF-268,> 100 µM (inactive)
same,GI50,SF-295,> 100 µM (inactive)
same,GI50,SF-539,> 100 µM (inactive)
same,GI50,SK-MEL-28,> 100 µM (inactive)
same,GI50,SK-MEL-2,> 100 µM (inactive)
same,GI50,SK-MEL-5,> 100 µM (inactive)
same,GI50,SK-OV-3,> 100 µM (inactive)
same,GI50,SN12C,> 100 µM (inactive)
same,GI50,SNB-19,> 100 µM (inactive)
same,GI50,SNB-75,> 100 µM (inactive)
same,GI50,SR,> 100 µM (inactive)
same,GI50,SW-620,> 100 µM (inactive)
same,GI50,T47D,> 100 µM (inactive)
same,GI50,TK-10,> 100 µM (inactive)
same,GI50,U-251,> 100 µM (inactive)
same,GI50,UACC-257,> 100 µM (inactive)
same,GI50,UACC-62,> 100 µM (inactive)
same,GI50,UO-31,52.5 µM (inactive)

# — ChEMBL document CHEMBL1201862, “PubChem BioAssay data set” (2004)
